{"source": "patent US12427171B2", "about": "“Krill oil composition enriched in LPC-DHA and LPC-EPA” (Aker BioMarine Human Ingredients AS, priority 2020, dated 2025)", "key": {"[1]": {"assay": "Mouse retinal fatty acid composition after daily gavage of free DHA, sn-1 DHA LPC or sn-2 DHA LPC for 30 days (GC/MS)", "assay_type": "in vivo", "conditions": "1 mg DHA daily by gavage", "description": "Normal male mice (C57 BL/J6, 16-week-old) were gavaged daily with 1 mg DHA in the form of free DHA, sn-1 DHA LPC, or sn-2 DHA LPC in 80 μL corn oil for 30 days. Retinal FA composition was analyzed by GC/MS. Only the values for arachidonic acid and the omega-3 FA are shown here (mean±SD, 8 animals/group). […] SD: standard deviation; sn-1 and sn-2: stereospecific numbering 1 and 2 respectively; LPC: lysophosphatidylcholine; DHA: docosahexaenoic acid.\n(§1) Animals and dietary treatments: All studies in animals described here were approved by the Institutional Animal Care and Use Committee of the University of Illinois at Chicago. The retina samples were obtained from our previous studies on the brain accretion of DHA in mice and rats, which were published previously. Male Sprague-Dawley rats (8-week-old) were purchased from Harlan laboratories (Indianapolis, IN, USA). Male C57 BL/J6 mice (2-4-months-old) were purchased from Jackson Laboratories (Bar Harbor. Maine).\n(§2) In the first study, male Sprague-Dawley rats (n=5 per group, 8-week-old) were gavaged daily with 10 mg of DHA (40 mg DHA/kg body weight) in the form of TAG-DHA (DHASCO algal oil, DSM Nutritional Products, Columbia, MD, USA), synthetic di-DHA PC (phosphatidylcholine), or synthetic LPC-DHA (sn-1 acyl) for 30 days. The DHA was distributed equally among the three positions of TAG-DHA [17]. […] In the second study, 4-month-old male C57 BL/J6 mice (n=8 per group) were gavaged daily with 40 mg DHA/kg body weight in the form of free (unesterified) DHA, sn-1 acyl LPC-DHA, or sn-2 acyl LPC-DHA for 30 days as described previously. In the third study, male C57 BL/J6 mice (2-months-old, n=5 per group) were fed diets enriched with natural or lipase-treated fish oil or hill oil for 30 days. The total amount of omega-3 FA (eicosapentaenoic acid (EPA)+DHA) was 2.64 g/kg diet in all the diets. The untreated hill oil contained 18% of total omega-3 FA as LPC, whereas the lipase-treated hill oil contained >80% of the total omega-3 FA as LPC. The fish oil diets contained no LPC-EPA or LPC-DHA. The animals were trans-cardially perfused with ice cold phosphate buffered saline under anesthesia and the retinas were collected and kept frozen at −80° C. until the analysis.\n(§3) Analytical procedures: The total lipids of retina were extracted by Bligh and Dyer procedure and the fatty acids were methylated using methanolic HCl. The fatty acid analysis was carried out by GC/MS (gas chromatography/mass spectroscopy) using Shimadzu QP2010SE equipped with Supelco Omegawax column, as described previously. Total ion current in the range of 50-400 m/z was used for quantification of the methyl esters. For LC/MS/MS (liquid chromatography/tandem mass spectroscopy) analysis, the lipids were extracted by the procedure of Ivanova et al.. The analysis of molecular species of phospholipids was performed on an ABSciex QTRAP mass spectrometer (Redwood City, CA, USA) coupled with Agilent 2600 UPLC system (Santa Clara, CA, USA), by multiple reaction monitoring. The internal standards 17:0 LPC, di 17:0 PC, and di 17:0 PE (phosphatidylethanolamine) were used for the quantification of the corresponding molecular species, without applying any correction factors for the differences in the ion intensity of different molecular species.\n(§4) Statistics and correlations: The significance of differences between treatment groups was determined by a one-way ANOVA, with Tukey post-hoc multiple comparison corrections or unpaired t-test between control and treated samples adjusted with Holm-Sidak method (Graphpad Prism 8.0, San Diego, CA, USA)."}, "[2]": {"assay": "Rat retinal fatty acid composition after daily gavage of DHA as TAG, PC or LPC for 30 days (GC/MS)", "assay_type": "in vivo", "description": "Normal male Sprague-Dawley rats (8-week-old; n=5 per group) were gavaged daily with 10 mg DHA in 250 μL corn oil in the form of TAG-DHA, di-DHA PC, or LPC-DHA for 30 days. […] All animals were on regular rodent chow that contained no DHA, but contained 17.4 mg α-linolenic acid (18:3, n-3) per g of chow. Retinal FA were analyzed by GC/MS as described in the text. The percent composition of 20:4 (n-6), 20:5 (n-3), 22:5 (n-3), and 22:6 (n-3) are shown here. The significance of differences between the treatment groups was determined by a one-way ANOVA, with Tukey multiple post-hoc test (Graphpad Prism 8.0). […] TG: triacylglycerol; PC: phosphatidylcholine; LPC: lysophosphatidylcholine; FA: fatty acid; GC/MS: gas chromatography/mass spectroscopy.\nas §1, §2, §3\nas §4, with “USA). […]” for “USA).”"}}}
{"smiles": "CC/C=C\\C/C=C\\C/C=C\\C/C=C\\C/C=C\\C/C=C\\CCC(=O)OC[C@@H](O)COP(=O)([O-])OCC[N+](C)(C)C", "note": "[sn-1 DHA LPC]", "values": [{"measurement": "fatty acid composition of mouse retina, 12:0, Mean ± S.D.", "setting": "[1]", "result": "0.73 ± 0.47"}, {"measurement": "fatty acid composition of mouse retina, 14:0, Mean ± S.D.", "setting": "[1]", "result": "0.30 ± 0.17"}, {"measurement": "fatty acid composition of mouse retina, 16:0, Mean ± S.D.", "setting": "[1]", "result": "14.62 ± 1.22"}, {"measurement": "fatty acid composition of mouse retina, 16:0 DMA, Mean ± S.D.", "setting": "[1]", "result": "1.02 ± 0.32"}, {"measurement": "fatty acid composition of mouse retina, 16:1 (n-7), Mean ± S.D.", "setting": "[1]", "result": "0.47 ± 0.34"}, {"measurement": "fatty acid composition of mouse retina, 17:1 (n-7), Mean ± S.D.", "setting": "[1]", "result": "0.48 ± 0.38"}, {"measurement": "fatty acid composition of mouse retina, 18:0, Mean ± S.D.", "setting": "[1]", "result": "15.44 ± 1.50"}, {"measurement": "fatty acid composition of mouse retina, 18:0 DMA, Mean ± S.D.", "setting": "[1]", "result": "1.96 ± 0.30"}, {"measurement": "fatty acid composition of mouse retina, 18:1(n-7), Mean ± S.D.", "setting": "[1]", "result": "3.82 ± 0.62"}, {"measurement": "fatty acid composition of mouse retina, 18:1 (n-9), Mean ± S.D.", "setting": "[1]", "result": "15.56 ± 1.16"}, {"measurement": "fatty acid composition of mouse retina, 18:1 DMA, Mean ± S.D.", "setting": "[1]", "result": "0.78 ± 0.64"}, {"measurement": "fatty acid composition of mouse retina, 18:2 (n-6), Mean ± S.D.", "setting": "[1]", "result": "1.38 ± 0.49"}, {"measurement": "fatty acid composition of mouse retina, 18:3 (n-3), Mean ± S.D.", "setting": "[1]", "result": "0.51 ± 0.42"}, {"measurement": "fatty acid composition of mouse retina, 18:3 (n-6), Mean ± S.D.", "setting": "[1]", "result": "0.60 ± 0.47"}, {"measurement": "fatty acid composition of mouse retina, 20:0, Mean ± S.D.", "setting": "[1]", "result": "1.18 ± 0.72"}, {"measurement": "fatty acid composition of mouse retina, 20:1 (n-9), Mean ± S.D.", "setting": "[1]", "result": "2.87 ± 0.60"}, {"measurement": "fatty acid composition of mouse retina, 20:2 (n-6), Mean ± S.D.", "setting": "[1]", "result": "0.88 ± 0.95"}, {"measurement": "fatty acid composition of mouse retina, 20:3 (n-6), Mean ± S.D.", "setting": "[1]", "result": "1.44 ± 0.35"}, {"measurement": "fatty acid composition of mouse retina, 20:4 (n-6), Mean ± S.D.", "setting": "[1]", "result": "5.75 ± 0.71"}, {"measurement": "fatty acid composition of mouse retina, 20:5 (n-3), Mean ± S.D.", "setting": "[1]", "result": "1.91 ± 1.40"}, {"measurement": "fatty acid composition of mouse retina, 22:0, Mean ± S.D.", "setting": "[1]", "result": "1.24 ± 0.95"}, {"measurement": "fatty acid composition of mouse retina, 22:2 (n-6), Mean ± S.D.", "setting": "[1]", "result": "1.00 ± 0.76"}, {"measurement": "fatty acid composition of mouse retina, 22:4 (n-6), Mean ± S.D.", "setting": "[1]", "result": "2.23 ± 0.87"}, {"measurement": "fatty acid composition of mouse retina, 22:5 (n-3), Mean ± S.D.", "setting": "[1]", "result": "0.79 ± 0.76"}, {"measurement": "fatty acid composition of mouse retina, 22:6 (n-3), Mean ± S.D.", "setting": "[1]", "result": "22.57 ± 3.12"}, {"measurement": "fatty acid composition of mouse retina, 24:1 (n-9), Mean ± S.D.", "setting": "[1]", "result": "0.49 ± 0.17"}]}
{"smiles": "CC/C=C\\C/C=C\\C/C=C\\C/C=C\\C/C=C\\C/C=C\\CCC(=O)OC[C@H](COP(=O)([O-])OCC[N+](C)(C)C)OC(=O)CC/C=C\\C/C=C\\C/C=C\\C/C=C\\C/C=C\\C/C=C\\CC", "note": "[PC-DHA]", "values": [{"measurement": "rat retinal fatty acid composition, 12:0, Mean", "setting": "[2]; 10 mg DHA daily by gavage", "result": "4.57 % of total FA"}, {"measurement": "rat retinal fatty acid composition, 14:0, Mean", "setting": "[2]; 10 mg DHA daily by gavage", "result": "0.97 % of total FA"}, {"measurement": "rat retinal fatty acid composition, 16:0, Mean", "setting": "[2]; 10 mg DHA daily by gavage", "result": "19.06 % of total FA"}, {"measurement": "rat retinal fatty acid composition, 16:0 DMA, Mean", "setting": "[2]; 10 mg DHA daily by gavage", "result": "0.05 % of total FA"}, {"measurement": "rat retinal fatty acid composition, 16:1 (n-7), Mean", "setting": "[2]; 10 mg DHA daily by gavage", "result": "0.65 % of total FA"}, {"measurement": "rat retinal fatty acid composition, 17:1 (n-7), Mean", "setting": "[2]; 10 mg DHA daily by gavage", "result": "0.03 % of total FA"}, {"measurement": "rat retinal fatty acid composition, 18:0, Mean", "setting": "[2]; 10 mg DHA daily by gavage", "result": "17.79 % of total FA"}, {"measurement": "rat retinal fatty acid composition, 18:0 DMA, Mean", "setting": "[2]; 10 mg DHA daily by gavage", "result": "0.03 % of total FA"}, {"measurement": "rat retinal fatty acid composition, 18:1 (n-7), Mean", "setting": "[2]; 10 mg DHA daily by gavage", "result": "3.91 % of total FA"}, {"measurement": "rat retinal fatty acid composition, 18:1 (n-9), Mean", "setting": "[2]; 10 mg DHA daily by gavage", "result": "17.70 % of total FA"}, {"measurement": "rat retinal fatty acid composition, 18:1 DMA, Mean", "setting": "[2]; 10 mg DHA daily by gavage", "result": "0.06 % of total FA"}, {"measurement": "rat retinal fatty acid composition, 18:2 (n-6), Mean", "setting": "[2]; 10 mg DHA daily by gavage", "result": "0.95 % of total FA"}, {"measurement": "rat retinal fatty acid composition, 18:3 (n-3), Mean", "setting": "[2]; 10 mg DHA daily by gavage", "result": "0.07 % of total FA"}, {"measurement": "rat retinal fatty acid composition, 18:3 (n-6), Mean", "setting": "[2]; 10 mg DHA daily by gavage", "result": "0.49 % of total FA"}, {"measurement": "rat retinal fatty acid composition, 20:0, Mean", "setting": "[2]; 10 mg DHA daily by gavage", "result": "0.05 % of total FA"}, {"measurement": "rat retinal fatty acid composition, 20:1 (n-9), Mean", "setting": "[2]; 10 mg DHA daily by gavage", "result": "0.07 % of total FA"}, {"measurement": "rat retinal fatty acid composition, 20:2 (n-6), Mean", "setting": "[2]; 10 mg DHA daily by gavage", "result": "0.06 % of total FA"}, {"measurement": "rat retinal fatty acid composition, 20:3 (n-6), Mean", "setting": "[2]; 10 mg DHA daily by gavage", "result": "0.06 % of total FA"}, {"measurement": "rat retinal fatty acid composition, 20:4 (n-6), Mean", "setting": "[2]; 10 mg DHA daily by gavage", "result": "8.45 % of total FA"}, {"measurement": "rat retinal fatty acid composition, 20:5 (n-3), Mean", "setting": "[2]; 10 mg DHA daily by gavage", "result": "0.06 % of total FA"}, {"measurement": "rat retinal fatty acid composition, 22:0, Mean", "setting": "[2]; 10 mg DHA daily by gavage", "result": "0.07 % of total FA"}, {"measurement": "rat retinal fatty acid composition, 22:2 (n-6), Mean", "setting": "[2]; 10 mg DHA daily by gavage", "result": "0.12 % of total FA"}, {"measurement": "rat retinal fatty acid composition, 22:4 (n-6), Mean", "setting": "[2]; 10 mg DHA daily by gavage", "result": "0.07 % of total FA"}, {"measurement": "rat retinal fatty acid composition, 22:5 (n-3), Mean", "setting": "[2]; 10 mg DHA daily by gavage", "result": "0.06 % of total FA"}, {"measurement": "rat retinal fatty acid composition, 22:5 (n-6), Mean", "setting": "[2]; 10 mg DHA daily by gavage", "result": "0.02 % of total FA"}, {"measurement": "rat retinal fatty acid composition, 22:6 (n-3), Mean", "setting": "[2]; 10 mg DHA daily by gavage", "result": "24.53 % of total FA"}, {"measurement": "rat retinal fatty acid composition, 24:1 (n-9), Mean", "setting": "[2]; 10 mg DHA daily by gavage", "result": "0.05 % of total FA"}, {"measurement": "change of the percentage of DHA in retina versus control", "setting": "[2]; rats, 10 mg DHA/day (40 mg DHA/kg)", "result": "+45%"}]}
